In US10464896B2, “Efflux-pump inhibitors and therapeutic uses thereof” (Basilea Pharmaceutica International AG, priority 2015, dated 2019):

Experiments:
[1] = tested on: P. aeruginosa PAO1; experiment: Antibacterial activity in combination with minocycline (growth inhibition); assay type: cell-based; conditions: Pseudomonas aeruginosa, PAO1, compound at 50 μM; minocycline 8 μg/mL; OD625 23 h minus 1 h; read-out: residual growth of P. aeruginosa PAO1 (% of uninhibited control) with minocycline
Method in brief: (§1)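 Test compound combined with fixed subinhibitory partner antibiotic: linezolid 128 μg/mL for either strain, minocycline 0.25 μg/mL (E. coli) or 8 μg/mL (P. aeruginosa), in caMHB shaken at 37 °C. Residual growth as % of inhibitor-free control, from OD625 at 23 h minus 1 h.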

[2] = tested on: E. coli ATCC25922; experiment: as above; assay type: cell-based; conditions: Escherichia coli, minocycline 0.25 μg/mL, OD625 23 h minus 1 h, read-out: residual growth of E. coli ATCC25922 (% of uninhibited control) with minocycline; for activity at 25 µM: ATCC25922, compound at 25 μM; for activity at 50 µM: ATCC25922, compound at 50 μM
Method in brief: as §1

SMILES	activity at 50 µM [1] [%]	activity at 25 µM [2] [%]	activity at 50 µM [2] [%]
C=CCOc1cc(/C=C/c2ccsc2)cc(CNCC2CCNC2)c1 (stereo not shown) [Example 320]	≤ 50	≤ 10	–
C=CCOc1cc(/C=C/c2ccc(OC)cc2OC)cc(CNCC2CNC2)c1 [Example 323]	≤ 50	≤ 10	–
CC(C)COc1cc(/C=C/c2cccc(C(N)=O)c2)cc(CNCC2CCNC2)c1 (stereo not shown) [Example 331]	≤ 50	≤ 10	–
C=CCOc1cc(CNCC2CCNC2)cc(CNC(=O)c2ccc(Cl)cc2Br)c1 (stereo not shown) [Example 349]	≤ 50	–	–
C=CCOc1cc(/C=C/c2nc(C(C)C)cs2)cc(CNCC2CCNC2)c1 (stereo not shown) [Example 353]	≤ 50	≤ 10	–
C=CCOc1cc(/C=C/c2ccc(Cl)cc2Br)cc(CNC(=O)[C@H]2CCNC2)c1 [Example 366]	≤ 50	≤ 10	–
C=CCOc1cc(CNCC2CNC2)cc(OCc2cc(C)on2)c1 [Example 420]	≤ 50	–	–
C=CCOc1cc(CNCC2CCNC2)cc(OCCc2ccncc2)c1 (stereo not shown) [Example 424]	≤ 50	–	–
c1cncc(COc2cc(CNCC3CNC3)cc(OCCc3ccncc3)c2)c1 [Example 425]	≤ 50	–	–
C=CCOc1cc(CNCC2CNC2)cc(OCc2cncc(C(N)=O)c2)c1 [Example 437]	≤ 50	–	–
C(=C\c1cc(CNCC2CCNC2)cc(OCCN2CCOCC2)c1)/c1cccnc1 (stereo not shown) [Example 440]	≤ 50	–	–
C=CCOc1cc(/C=C/c2ccc(Cl)cc2Br)cc(C(=O)NCC(=O)NCC2CNC2)c1 [Example 445]	≤ 50	≤ 10	–
C=CCOc1cc(/C=C/c2cncc(C(N)=O)c2)cc(CNCC2CCNC2)c1 (stereo not shown) [Example 458]	≤ 50	–	–
N#Cc1cncc(/C=C/c2cc(CNCC3CCNC3)cc(OCc3ccccn3)c2)c1 (stereo not shown) [Example 474]	≤ 50	–	–
C=CCOc1cc(/C=C/c2ccc(N)cc2)nc(CNCC2CCNC2)c1 (stereo not shown) [Example 475]	≤ 50	–	≤ 50
CC(C)COc1cc(CNCC2CCNC2)cc(CNC(=O)c2cccc(C(N)=O)c2)c1 (stereo not shown) [Example 477, N1-[[3-isobutoxy-5-[(pyrrolidin-3-ylmethylamino)methyl]phenyl]methyl]benzene-1,3-dicarboxamide]	≤ 50	–	–
N#Cc1cncc(/C=C/c2cc(O)cc(CNCC3CCNC3)c2)c1 (stereo not shown) [Example 480, 5-[(E)-2-[3-hydroxy-5-[(pyrrolidin-3-ylmethylamino)methyl]phenyl]vinyl]pyridine-3-carbonitrile]	≤ 50	–	–
CC(C)COc1cc(CNCC2CCNC2)cc(NC(=O)c2cccnc2)c1 (stereo not shown) [Example 485, N-[3-isobutoxy-5-[(pyrrolidin-3-ylmethylamino)methyl]phenyl]pyridine-3-carboxamide]	–	–	≤ 50
N#Cc1cncc(/C=C/c2cc(CNCC3CCNC3)cc(OCCc3ccncc3)c2)c1 (stereo not shown) [Example 496]	≤ 50	–	–
C=CCOc1cc(/C=C/c2cncc(O)c2)cc(CNCC2CCNC2)c1 (stereo not shown) [Example 499]	–	–	≤ 50
Clc1ccc(/C=C/c2cc(OCCCNCC3CNC3)cc(OCCc3ccncc3)c2)c(Br)c1 [Example 509]	–	≤ 10	–
O=C(NCc1cc(CNCC2CNC2)cc(OCCc2ccncc2)c1)c1cccnc1 [Example 510]	≤ 50	–	–
Cc1cc(COc2ccc(OCCCNCC3CNC3)c(/C=C/c3ccc(Cl)cc3Br)c2)no1 [Example 512]	–	≤ 10	–
CC(C)COc1ccc(/C=C/c2ccc(Cl)cc2Br)cc1OCCCNCC1CNC1 [Example 513]	–	≤ 10	–
O=C(NCCNC(=O)C1CNC1)c1cc(/C=C/c2ccc(Cl)cc2Br)cc(OCCc2ccncc2)c1 [Example 515]	–	≤ 10	–
Clc1ccc(/C=C/c2cc(OCCCCNCC3CNC3)cc(OCCc3ccncc3)c2)c(Br)c1 [Example 517]	–	≤ 10	–
O=C(NCCNCC1CNC1)c1cc(/C=C/c2ccc(Cl)cc2Br)cc(OCCc2ccncc2)c1 [Example 518]	–	≤ 10	–
Clc1ccc(/C=C/c2cc(OCc3ccncc3)ccc2OCCCNCC2CNC2)c(Br)c1 [Example 519]	–	≤ 10	–
Cc1cc(COc2ccc(/C=C/c3ccc(Cl)cc3Br)cc2CNC(=O)C2CCNC2)no1 (stereo not shown) [Example 523]	–	≤ 10	–
Clc1ccc(/C=C/c2cc(OCCc3ccncc3)ccc2OCCCNCC2CNC2)c(Br)c1 [Example 525]	–	≤ 10	–
